Measured values published in US20110136801A1, “Novel Compounds” (Dainippon Sumitomo Pharma Co. Ltd., priority 2009, published 2011).

Molecular target: T1, human TLR7 (Homo sapiens, UniProt Q9NYK1)
T1 construct: expressed in transfected cells; host or cells: HEK293 cell line stably expressing the pNiFty2-SEAP reporter plasmid; TLR7 in pUNO vector, blasticidin selection
T1 sequence (Q9NYK1 27-1049): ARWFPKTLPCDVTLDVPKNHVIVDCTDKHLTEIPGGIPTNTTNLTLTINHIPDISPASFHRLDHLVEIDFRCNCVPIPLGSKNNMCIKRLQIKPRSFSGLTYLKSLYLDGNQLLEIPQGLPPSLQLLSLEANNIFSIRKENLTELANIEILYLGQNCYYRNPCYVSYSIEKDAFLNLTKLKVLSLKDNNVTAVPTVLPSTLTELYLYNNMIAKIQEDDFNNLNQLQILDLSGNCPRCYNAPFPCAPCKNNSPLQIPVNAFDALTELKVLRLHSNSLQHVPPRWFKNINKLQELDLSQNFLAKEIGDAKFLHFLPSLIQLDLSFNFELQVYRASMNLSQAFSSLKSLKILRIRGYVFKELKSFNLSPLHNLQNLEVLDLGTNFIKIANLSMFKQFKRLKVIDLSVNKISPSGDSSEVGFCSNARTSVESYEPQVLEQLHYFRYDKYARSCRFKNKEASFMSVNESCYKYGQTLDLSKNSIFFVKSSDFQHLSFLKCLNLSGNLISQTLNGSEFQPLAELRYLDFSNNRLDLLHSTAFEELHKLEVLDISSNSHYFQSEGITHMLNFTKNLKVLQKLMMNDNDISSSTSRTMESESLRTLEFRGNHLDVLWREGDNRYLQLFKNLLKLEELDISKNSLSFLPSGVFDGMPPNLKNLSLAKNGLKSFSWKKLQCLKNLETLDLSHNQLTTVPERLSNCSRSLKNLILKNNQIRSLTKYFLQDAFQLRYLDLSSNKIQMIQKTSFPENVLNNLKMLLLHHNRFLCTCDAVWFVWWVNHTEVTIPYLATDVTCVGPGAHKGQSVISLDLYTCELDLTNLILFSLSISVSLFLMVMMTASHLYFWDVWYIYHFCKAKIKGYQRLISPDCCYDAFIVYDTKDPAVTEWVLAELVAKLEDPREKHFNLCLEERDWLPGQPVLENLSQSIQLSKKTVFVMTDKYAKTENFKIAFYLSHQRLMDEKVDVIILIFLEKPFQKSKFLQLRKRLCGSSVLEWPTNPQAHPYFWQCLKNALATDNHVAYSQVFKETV
Assay: Human TLR7 Assay (SEAP reporter in HEK293 cells);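 note: Read-out is secreted alkaline phosphatase made under an NFkB/ELAM-1 composite promoter, reporting TLR7-triggered NFkB activation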
Type: cell-based
Conditions: HEK293 cell line expressing human TLR7 and pNiFty2-SEAP reporter, overnight incubation at 37° C., 0.1% DMSO; read-out: hTLR7 EC50

| SMILES | EC50 [nM] |
| --- | --- |
| CCCCc1nc2c(N)nc3ccccc3c2n1CCCN(Cc1cccc(OC(C)(C)C(=O)OC)c1)C(=O)CN(C)C [Example 156, Methyl 2-[3-({N-[3-(4-amino-2-butyl-1H-imidazo[4,5-c]quinolin-1-yl)propyl]-2-(dimethylamino)acetamido}methyl)phenoxy]-2-methylpropanoate] | 168 |
| CCOC(=O)COc1cccc(CN(CCCn2c(CCOC)nc3c(N)nc4ccccc4c32)C(=O)CN(C)CC)c1F [Example 97, Ethyl 2-{3-[(N-{3-[4-amino-2-(2-methoxyethyl)-1H-imidazo[4,5-c]quinolin-1-yl]propyl}-2-{ethyl(methyl)amino}acetamido)methyl]-2-fluorophenoxy}acetate] | 256 |
| CCCCc1nc2c(N)nc3ccccc3c2n1CCCN(Cc1cccc(OCC(=O)OC(C)C)c1F)C(=O)CN(CC)CC [Example 164, Isopropyl 2-[3-({N-[3-(4-amino-2-butyl-1H-imidazo[4,5-c]quinolin-1-yl)propyl]-2-(diethylamino)acetamido}methyl)-2-fluorophenoxy]acetate] | 158 |
| COCCc1nc2c(N)nc3ccccc3c2n1CCCN(Cc1cccc(OCC(=O)OC)c1)C(=O)CN1CCN(C)CC1 [Example 18, Methyl (3-{[[3-(4-amino-2-(2-methoxyethyl)-1H-imidazo[4,5-c]quinolin-1-yl)propyl][(4-methylpiperazin-1-yl)acetyl]amino]methyl}phenoxy)acetate] | 1270 |
| CCN(CC)CC(=O)N(CCCn1c(CCOC)nc2c(N)nc3ccccc3c21)Cc1cccc(OC(C)C(=O)OC)c1 (centres unmarked) [Example 51, Methyl 2-{3-[(N-{3-[4-amino-2-(2-methoxyethyl)-1H-imidazo[4,5-c]quinolin-1-yl]propyl}-2-{diethylamino}acetamido)methyl]phenoxy}propanoate] | 42.6 |
| CCN(C)CC(=O)N(CCCn1c(CCOC)nc2c(N)nc3ccccc3c21)Cc1cccc(OC(C)(C)C(=O)OC)c1 [Example 151, Methyl 2-{3-[(N-{3-[4-amino-2-(2-methoxyethyl)-1H-imidazo[4,5-c]quinolin-1-yl]propyl}-2-{ethyl(methyl)amino}acetamido)methyl]phenoxy}-2-methylpropanoate] | 82 |
| CCN(CC)CC(=O)N(CCCn1c(CCOC)nc2c(N)nc3ccccc3c21)Cc1cccc(OCC(=O)OCC(C)C)c1 [Example 28, Isobutyl 2-{3-[(N-{3-[4-amino-2-(2-methoxyethyl)-1H-imidazo[4,5-c]quinolin-1-yl]propyl}-2-(diethylamino)acetamido)methyl]phenoxy}acetate] | 49.9 |
| CCN(CC)CC(=O)N(CCCn1c(CCOC)nc2c(N)nc3ccccc3c21)Cc1cccc(OCC(=O)OC2CCOCC2)c1 [Example 82, Tetrahydro-2H-pyran-4-yl 2-{3-[(N-{3-[4-amino-2-(2-methoxyethyl)-1H-imidazo[4,5-c]quinolin-1-yl]propyl}-2-{diethylamino}acetamido)methyl]phenoxy}acetate] | 115 |
| CCCCc1nc2c(N)nc3ccccc3c2n1CCCN(Cc1cccc(OC(C)(C)C(=O)OCC)c1)C(=O)CN(CC)CC [Example 153, Ethyl 2-[3-({N-[3-(4-amino-2-butyl-1H-imidazo[4,5-c]quinolin-1-yl)propyl]-2-(diethylamino)acetamido}methyl)phenoxy]-2-methylpropanoate] | 86.1 |
| CCN(CC)CC(=O)N(CCCn1c(CCOC)nc2c(N)nc3ccccc3c21)Cc1ccc(OC)c(OCC(=O)OC)c1 [Example 63, Methyl 2-{5-[(N-{3-[4-amino-2-(2-methoxyethyl)-1H-imidazo[4,5-c]quinolin-1-yl]propyl}-2-{diethylamino}acetamido)methyl]-2-methoxyphenoxy}acetate] | 212 |
| CCN(CC)CC(=O)N(CCCn1c(CCOC)nc2c(N)nc3ccccc3c21)Cc1ccccc1OCC(=O)OC [Example 40, Methyl 2-{2-[(N-{3-[4-amino-2-(2-methoxyethyl)-1H-imidazo[4,5-c]quinolin-1-yl]propyl}-2-(diethylamino)acetamido)methyl]phenoxy}acetate] | 243 |
| CCOC(=O)COc1cccc(CN(CCCn2c(CCOC)nc3c(N)nc4ccccc4c32)C(=O)CN2CCCC2)c1 [Example 31, Ethyl 2-{3-[(N-{3-[4-amino-2-(2-methoxyethyl)-1H-imidazo[4,5-c]quinolin-1-yl]propyl}-2-(pyrrolidin-1-yl)acetamido)methyl]phenoxy}acetate] | 150 |
| CCOC(=O)COc1cccc(CN(CCN2CCCCC2)C(=O)NCCCCn2c(CCOC)nc3c(N)nc4ccccc4c32)c1 [Example 130, Ethyl 2-{3-[(3-{4-[4-amino-2-(2-methoxyethyl)-1H-imidazo[4,5-c]quinolin-1-yl]butyl}-1-{2-(piperidin-1-yl)ethyl}ureido)methyl]phenoxy}acetate] | 24.4 |
| CCCCc1nc2c(N)nc3ccccc3c2n1CCCN(Cc1cccc(OCC(=O)OC(C)C)c1)C(=O)CN(CC)CC [Example 157, Isopropyl 2-[3-({N-[3-(4-amino-2-butyl-1H-imidazo[4,5-c]quinolin-1-yl)propyl]-2-(diethylamino)acetamido}methyl)phenoxy]acetate] | 100 |
| CCOC(=O)COc1ccc(CN(CCCn2c(CCOC)nc3c(N)nc4ccccc4c32)C(=O)CN(CC)CC)cc1 [Example 37, Ethyl 2-{4-[(N-{3-[4-amino-2-(2-methoxyethyl)-1H-imidazo[4,5-c]quinolin-1-yl]propyl}-2-(diethylamino)acetamido)methyl]phenoxy}acetate] | 38.3 |
| CCOC(=O)COc1cccc(CN(CCCCn2c(CCOC)nc3c(N)nc4ccccc4c32)C(=O)CN(CC)CC)c1 [Example 44, Ethyl 2-{3-[(N-{4-[4-amino-2-(2-methoxyethyl)-1H-imidazo[4,5-c]quinolin-1-yl]butyl}-2-(diethylamino)acetamido)methyl]phenoxy}acetate] | 22.7 |
| CCN(CC)CC(=O)N(CCCn1c(CCOC)nc2c(N)nc3ccccc3c21)Cc1ccc(F)c(OCC(=O)OC(C)C)c1 [Example 118, Isopropyl 2-{5-[(N-{3-[4-amino-2-(2-methoxyethyl)-1H-imidazo[4,5-c]quinolin-1-yl]propyl}-2-{diethylamino}acetamido)methyl]-2-fluorophenoxy}acetate] | 77.4 |
| COCCc1nc2c(N)nc3ccccc3c2n1CCCN(Cc1cccc(OCC(=O)OC(C)C)c1)C(=O)CN1CCOCC1 [Example 112, Isopropyl 2-{3-[(N-{3-[4-amino-2-(2-methoxyethyl)-1H-imidazo[4,5-c]quinolin-1-yl]propyl}-2-morpholinoacetamido)methyl]phenoxy}acetate] | 756 |
| CCOC(=O)C(C)(C)Oc1cccc(CN(CCCn2c(CCOC)nc3c(N)nc4ccccc4c32)C(=O)CN(CC)CC)c1 [Example 55, Ethyl 2-{3-[(N-{3-[4-amino-2-(2-methoxyethyl)-1H-imidazo[4,5-c]quinolin-1-yl]propyl}-2-{diethylamino}acetamido)methyl]phenoxy}-2-methylpropanoate] | 46.4 |
| CCCCc1nc2c(N)nc3ccccc3c2n1CCCN(Cc1ccc(OCC(=O)OC)cc1)C(=O)CN1CCCCC1 [Example 6, Methyl (4-{[[3-(4-amino-2-butyl-1H-imidazo[4,5-c]quinolin-1-yl)propyl](piperidin-1-ylacetyl)amino]methyl}phenoxy)acetate] | 169 |
| COCCc1nc2c(N)nc3ccccc3c2n1CCCCN(CCCN1CCOCC1)Cc1cccc(OCC(=O)OC(C)C)c1 [Example 133, Isopropyl 2-{3-[({4-[4-amino-2-(2-methoxyethyl)-1H-imidazo[4,5-c]quinolin-1-yl]butyl}{3-morpholinopropyl}amino)methyl]phenoxy}acetate] | 114 |
| COCCc1nc2c(N)nc3ccccc3c2n1CCCNCc1cccc(OCC(=O)OC)c1 [Example 15, Methyl (3-{[[3-(4-amino-2-(2-methoxyethyl)-1H-imidazo[4,5-c]quinolin-1-yl)propyl]amino]methyl}phenoxy)acetate] | 181 |
| CCOC(=O)COc1cccc(CN(CCCCn2c(CCOC)nc3c(N)nc4ccccc4c32)C(=O)NCCCN2CCCCC2)c1 [Example 128, Ethyl 2-{3-[(1-{4-[4-amino-2-(2-methoxyethyl)-1H-imidazo[4,5-c]quinolin-1-yl]butyl}-3-{3-(piperidin-1-yl)propyl}ureido)methyl]phenoxy}acetate] | 130 |
